Experimental data taken from US20090247475A1, “METHODS AND COMPOSITIONS RELATING TO PHARMACOGENETICS OF DIFFERENT GENE VARIANTS IN THE CONTEXT OF IRINOTECAN-BASED THERAPIES” (The Regents of the University of California, priority 2004, published 2009).
Numbering of substitutions follows the chain as printed. Where two headings read alike, the source gives them in different places.

What was measured:
[1] = target: T1, SLCO1B1*15 (N130D and V174A) (Homo sapiens, UniProt Q9Y6L6, N130D/V174A); conditions: among the variants examined; cited from earlier work
T1 sequence (Q9Y6L6 1-691 N130D/V174A): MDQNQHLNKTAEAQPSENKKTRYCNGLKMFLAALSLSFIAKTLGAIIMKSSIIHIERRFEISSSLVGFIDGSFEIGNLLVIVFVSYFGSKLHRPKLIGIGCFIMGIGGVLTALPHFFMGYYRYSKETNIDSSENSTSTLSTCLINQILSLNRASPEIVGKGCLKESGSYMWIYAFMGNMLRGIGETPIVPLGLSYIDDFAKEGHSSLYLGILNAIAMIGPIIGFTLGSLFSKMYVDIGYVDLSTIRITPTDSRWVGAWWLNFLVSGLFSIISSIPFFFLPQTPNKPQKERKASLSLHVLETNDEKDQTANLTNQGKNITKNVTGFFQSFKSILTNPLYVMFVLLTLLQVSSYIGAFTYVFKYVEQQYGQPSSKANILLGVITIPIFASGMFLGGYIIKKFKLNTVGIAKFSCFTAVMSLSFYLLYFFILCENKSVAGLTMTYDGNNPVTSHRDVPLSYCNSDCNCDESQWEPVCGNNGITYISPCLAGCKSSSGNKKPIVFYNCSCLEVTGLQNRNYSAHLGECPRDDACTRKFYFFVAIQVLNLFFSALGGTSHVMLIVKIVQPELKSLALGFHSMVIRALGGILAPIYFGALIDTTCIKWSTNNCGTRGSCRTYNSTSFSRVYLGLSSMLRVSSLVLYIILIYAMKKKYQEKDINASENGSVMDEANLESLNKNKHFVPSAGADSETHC

[2] = Irinotecan pharmacokinetics (AUC, noncompartmental analysis) in cancer patients stratified by genotype
Source text: Sixty-four adults (48 Caucasians, 10 African-Americans, 4 Hispanics, and 2 others) with refractory solid tumors took part in the pharmacogenetic study.
After visual inspection of the graphical plots of AUC and ratios stratified by genotype, t test analysis was applied to the data showing the possible presence of an inter-genotype difference in irinotecan pharmacokinetics.
Two SNPs in SLCO1B1 [*1b (388A>G) and *5 (521T>C)] were also genotyped.

[3] = target: T2, OATP1B1 (Homo sapiens, UniProt Q9Y6L6); conditions: cited from earlier work
T2 sequence (Q9Y6L6 1-691): T1 sequence (Q9Y6L6 1-691 N130D/V174A) with D130N, A174V

[4] = human, in vivo
[5] = early single agent trials; fraction of patients; cited from earlier work
[6] = cited from earlier work
[7] = OATP1B1*1a and three common variants

For `CCc1c2c(nc3ccc(O)cc13)-c1cc3c(c(=O)n1C2)COC(=O)[C@]3(O)CC` [SN-38, 7-ethyl-10-hydroxycamptothecin], the “Transport activity of SLCO1B1*15 variant” value [1] is given as “decreased transport activities”, the “AUC in ABCC2 3972 TT patients compared to CT and CC patients” value ([2]; 350 mg/m^2 IV irinotecan, SN-38 and SN-38G analysed in 6/6 and 6/7 UGT1A1 genotype patients) is given as “No significant correlation” and the “Transport by OATP1B1” value [3, 7] is given as “transport activity for SN-38 was observed”. For the same molecule, the “Inhibition of SLCO1B1-mediated uptake of [(3)H]estrone-3-sulfate” value [3] was “significant inhibitory effect”.
In the case of `CCc1c2c(nc3ccc(O[C@@H]4O[C@H](C(=O)O)[C@@H](O)[C@H](O)[C@H]4O)cc13)-c1cc3c(c(=O)n1C2)COC(=O)[C@]3(O)CC` [SN-38G, 10O-glucuronyl-SN-38], the “Transport by OATP1B1” value [3] is listed as “not transported” and the “Effect of SLCO1B1*5 variant on patient exposure (AUC)” value [4] is listed as “not affected”.
In the case of `C[C@]12CC[C@@H]3c4ccc(OS(=O)(=O)O)cc4CC[C@H]3[C@@H]1CCC2=O` [estrone-3-sulfate], the “Transport activity of SLCO1B1*15 variant” value [1] is given as “decreased transport activities”.
In the case of `CCc1c2c(nc3ccc(OC(=O)N4CCC(N5CCCCC5)CC4)cc13)-c1cc3c(c(=O)n1C2)COC(=O)[C@]3(O)CC` [irinotecan, Irinotecan], the “Effect of SLCO1B1*1b allele on plasma disposition” value ([2]; human, in vivo) is listed as “no effect”, the “Transport by OATP1B1” value [3, 7] is listed as “not transported” and the “Frequency of grade 3-4 diarrhea” value [5] is listed as “about one third”. The “Effect of SLCO1B1*5 variant on patient exposure (AUC)” value [4] was “increase in irinotecan AUC”.
In the case of `CC[C@H](C)C(=O)O[C@H]1C[C@H](O)C=C2C=C[C@H](C)[C@H](CC[C@@H](O)C[C@@H](O)CC(=O)O)[C@H]21` [pravastatin], the “Transport activity of SLCO1B1*15 variant” value [1] is listed as “decreased transport activities”, the “Mean pravastatin AUC0-12 higher compared to non-carriers” value ([6]; heterozygous carriers of *15B) is listed as 93% and the “Mean pravastatin AUC0-12 higher compared to non-carriers” value ([6]; heterozygous carriers of *17) is listed as 130%. For the same molecule, the “Mean pravastatin AUC0-12 higher compared to reference genotype” value ([6]; subjects with SLCO1B1 -11187GA genotype) was 98%.
